Laboratory results from ChEMBL document CHEMBL5506069, “A Unique Hybridization Route to Access Hydrazylnaphthalimidols as Novel Structural Scaffolds of Multitargeting Broad-Spectrum Antifungal Candidates” (J Med Chem, 2024).
Converted amounts (≈) assume the structure as drawn. The source made the active and inactive calls. No cut-off for these calls is given here.

Key:
[1] = tested on: Candida albicans; assay: Induction of morphological changes in Candida albicans assessed as appearance of regular continuous surface by SEM analysis; type: functional, organism-based
[2] = tested on: Candida albicans; assay: Induction of intracellular ROS production in Candida albicans assessed as fold increase in fluorescence intensity at 1 times MIC incubated for 6 hrs by DCFH-DA staining based analysis; type: functional
[3] = tested on: Candida albicans; assay: Induction of morphological changes in Candida albicans assessed as appearance of dented surface at 2 times MIC measured after 6 hrs by SEM analysis; type: functional, organism-based
[4] = tested on: Candida albicans; assay: Potency index, ratio of fluconazole MIC to test compound MIC for antifungal activity against Candida albicans assessed as inhibition of fungal growth incubated for 24 hrs by CLSI based microbroth dilution method; type: functional
[5] = tested on: Calf thymus DNA; assay: Binding affinity to calf thymus DNA assessed as binding constant by UV-Vis absorption spectra analysis; type: nucleic-acid assay; details: Bos taurus
[6] = tested on: Candida albicans; assay: Induction of morphological changes in Candida albicans assessed as appearance of oval shape by SEM analysis; type: functional, organism-based
[7] = tested on: Candida tropicalis; assay: Antifungal activity against Candida tropicalis assessed as inhibition of fungal growth incubated for 24 hrs by CLSI based microbroth dilution method; type: functional
[8] = tested on: Candida albicans; assay: Antifungal activity against Candida albicans assessed as reduction in metabolic activity by measuring fluorescence intensity at 0.5 to 8 times MIC measured for 6 hrs by alamar blue staining based analysis; type: functional, organism-based
[9] = tested on: Candida albicans; assay: Induction of intracellular ROS production in Candida albicans assessed as increase in green fluorescence intensity at 4 times MIC incubated for 6 hrs by fluorescence microscopic analysis; type: functional, organism-based
[10] = tested on: Calf thymus DNA; assay: Induction of DNA cleavage in calf thymus DNA at 0.05 to 0.5 mM in presence of Cu2+ by agarose gel electrophoresis analysis; type: nucleic-acid assay; details: Bos taurus; dose 0.05-0.5 mM
[11] = tested on: Candida albicans; assay: Induction of morphological changes in Candida albicans assessed as deformation of cell shape at 2 times MIC measured after 6 hrs by SEM analysis; type: functional, organism-based
[12] = tested on: Aspergillus fumigatus; assay: Antifungal activity against Aspergillus fumigatus assessed as inhibition of fungal growth incubated for 24 hrs by CLSI based microbroth dilution method; type: functional
[13] = tested on: Calf thymus DNA; assay: Binding affinity to calf thymus DNA assessed as DNA-compound complex formation by measuring hyperchromism upto 7 mM by UV-Vis absorption spectra analysis; type: nucleic-acid assay; details: Bos taurus
[14] = tested on: Candida albicans; assay: Antioxidant activity in Candida albicans assessed as decrease in GSH content measured at 5 mins by ellman method; type: functional; parameters: scale not given: the % may be the effect or the level left
[15] = target: T1, Albumin (Homo sapiens, UniProt P02768); assay: Binding affinity to human serum albumin assessed as Stem-Volmer quenching constant at 310K at pH 7.4 by fluorescence based analysis
T1 sequence (P02768 whole entry): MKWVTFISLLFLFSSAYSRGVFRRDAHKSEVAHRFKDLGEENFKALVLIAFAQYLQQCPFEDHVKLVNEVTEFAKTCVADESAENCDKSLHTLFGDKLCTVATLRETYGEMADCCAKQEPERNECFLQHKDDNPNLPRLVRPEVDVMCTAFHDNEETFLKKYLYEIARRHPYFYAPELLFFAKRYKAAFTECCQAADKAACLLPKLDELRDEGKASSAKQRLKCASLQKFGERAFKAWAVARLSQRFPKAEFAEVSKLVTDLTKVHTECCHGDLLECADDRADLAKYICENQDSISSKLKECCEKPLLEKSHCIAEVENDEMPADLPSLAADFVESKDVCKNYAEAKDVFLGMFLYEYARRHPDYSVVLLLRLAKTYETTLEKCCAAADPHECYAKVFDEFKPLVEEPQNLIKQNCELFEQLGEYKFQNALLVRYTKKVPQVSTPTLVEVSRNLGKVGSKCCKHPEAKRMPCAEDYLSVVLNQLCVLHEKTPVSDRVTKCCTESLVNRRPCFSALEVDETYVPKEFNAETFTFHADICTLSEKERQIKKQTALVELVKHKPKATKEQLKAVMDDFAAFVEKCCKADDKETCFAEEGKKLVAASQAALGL

[16] = tested on: Candida albicans; assay: Antifungal activity against Candida albicans ATCC 90023 assessed as inhibition of fungal growth incubated for 24 hrs by CLSI based microbroth dilution method; type: functional
[17] = tested on: Calf thymus DNA; assay: Binding affinity to calf thymus DNA assessed as decrease in fluorescence intensity by acridine orange dye based by UV-Vis absorption spectra analysis; type: nucleic-acid assay; details: Bos taurus
[18] = tested on: Erythrocyte; assay: Hemolytic activity in RBC (unknown origin) assessed as appearance of round surface at 128 times MIC measured for 6 hrs by microscopic analysis; type: toxicity, cell-based
[19] = tested on: Candida albicans; assay: Antifungal activity against Candida albicans assessed as inhibition of fungal growth incubated for 24 hrs by CLSI based microbroth dilution method; type: functional
[20] = tested on: Calf thymus DNA; assay: Binding affinity to calf thymus DNA assessed as change in red shift by measuring hypochromism upto 7 mM by UV-Vis absorption spectra analysis; type: nucleic-acid assay; details: Bos taurus
[21] = tested on: Candida albicans; assay: Antifungal activity against Candida albicans assessed as reduction in LDH activity by measuring fluorescence intensity measured for 6 hrs by alamar blue staining based analysis; type: functional, organism-based
[22] = tested on: Candida parapsilosis; assay: Antifungal activity against Candida parapsilosis ATCC 22019 assessed as inhibition of fungal growth incubated for 24 hrs by CLSI based microbroth dilution method; type: functional; details: Lodderomyces parapsilosis
[23] = target: T1, Albumin; assay: Binding affinity to human serum albumin assessed as Stem-Volmer quenching constant at 286K at pH 7.4 by fluorescence based analysis
[24] = tested on: Candida albicans; assay: Antifungal activity against Candida albicans assessed as reduction in LDH activity by measuring fluorescence intensity at 8 times MIC measured for 6 hrs by alamar blue staining based analysis; type: functional; parameters: scale not given: the % may be the effect or the level left
[25] = tested on: Candida albicans; assay: Antibiofilm activity against Candida albicans assessed as reduction in residual biomass measured for 24 hrs by crystal violet staining based; type: functional, organism-based; details: dose <= 8.0 µg/ml
[26] = tested on: Cell membrane; assay: Induction of cell membrane damage in Candida albicans assessed as increase in fluorescent intensity at 0.5 to 8 times MIC measured for 6 hrs by PI staining based spectrofluorimeter analysis; type: subcellular
[27] = tested on: Candida albicans; assay: Antifungal activity against Candida albicans measured after at 14 passages; type: functional, organism-based
[28] = tested on: Candida albicans; assay: Antifungal activity against Candida albicans assessed as reduction in metabolic activity by measuring fluorescence intensity measured for 6 hrs by alamar blue staining based analysis; type: functional, organism-based
[29] = tested on: Cell membrane; assay: Induction of cytoplasmic membrane depolarization in Candida albicans assessed as increase in fluorescence intensity at 4 times MIC measured for 30 mins by DiSC3-5 dye based fluorescence method; type: cell membranes
[30] = tested on: Calf thymus DNA; assay: Induction of DNA cleavage in calf thymus DNA at 0.5 mM in presence of Cu2+ by agarose gel electrophoresis analysis; type: nucleic-acid assay; details: Bos taurus
[31] = tested on: Candida albicans; assay: Antifungal activity against Candida albicans at 4 times MIC measured within 10 hrs by time kill assay; type: functional, organism-based
[32] = target: T1, Albumin; assay: Binding affinity to human serum albumin assessed as Stem-Volmer quenching constant at 298K at pH 7.4 by fluorescence based analysis
[33] = tested on: Candida albicans; assay: Antioxidant activity in Candida albicans assessed as decrease in GSH content at 2 times MIC measured at 30 mins by ellman method; type: functional; parameters: scale not given: the % may be the effect or the level left; details: 0.5 h
[34] = tested on: Candida albicans; assay: Antioxidant activity in Candida albicans assessed as decrease in GSH content at 1 times MIC measured at 30 mins by ellman method; type: functional; parameters: scale not given: the % may be the effect or the level left; details: 0.5 h
[35] = tested on: Calf thymus DNA; assay: Induction of DNA cleavage in calf thymus DNA at 0.05 to 0.5 mM in presence of Zn2+ by agarose gel electrophoresis analysis; type: nucleic-acid assay; details: Bos taurus; dose 0.05-0.5 mM
[36] = tested on: Candida albicans; assay: […] in Candida albicans assessed as decrease in pink fluorescence by resazurin staining based analysis; type: functional, organism-based
[37] = tested on: Candida albicans; assay: Induction of intracellular ROS production in Candida albicans assessed as fold increase in fluorescence intensity at 4 to 128 times MIC incubated for 6 hrs by DCFH-DA staining based analysis; type: functional, organism-based
[38] = tested on: Erythrocyte; assay: Hemolytic activity in RBC (unknown origin) assessed as appearance of smooth surface at 128 times MIC measured for 6 hrs by microscopic analysis; type: toxicity, cell-based
[39] = tested on: Candida albicans; assay: Induction of intracellular ROS production in Candida albicans assessed as increase in fluorescence intensity incubated for 6 hrs by DCFH-DA staining based analysis; type: functional, organism-based
[40] = Hemolytic activity in RBC (unknown origin) assessed as hemolysis rate 128 times MIC measured for 6 hrs by double dilution method; type: toxicity, cell-based, Erythrocyte; details: red blood cells (erythrocytes), read-out: Activity
[41] = tested on: Cell membrane; assay: Induction of cell membrane potential loss in Candida albicans assessed as change in fluorescence intensity at 4 times MIC measured for 30 mins by DiSC3-5 dye based fluorescence method; type: subcellular
[42] = tested on: Calf thymus DNA; assay: Induction of DNA cleavage in calf thymus DNA assessed as change in DNA band formation at 0.05 to 0.5 mM by agarose gel electrophoresis analysis; type: nucleic-acid assay; details: Bos taurus; dose 0.05-0.5 mM
[43] = tested on: Calf thymus DNA; assay: Induction of DNA cleavage in calf thymus DNA at 0.5 mM in presence of Zn2+ by agarose gel electrophoresis analysis; type: nucleic-acid assay; details: Bos taurus
[44] = tested on: L02; assay: Cytotoxicity against human L02 cells assessed as effect on cell growth incubated for 24 to 48 hrs by MTT assay; type: toxicity, cell-based; details: time 24-48 hrs
[45] = tested on: Cell membrane; assay: Induction of cell membrane damage in Candida albicans assessed as increase in red fluorescent intensity at 4 to 8 times MIC measured for 6 hrs by PI staining based spectrofluorimeter analysis
[46] = tested on: Candida albicans; assay: Antibiofilm activity against Candida albicans assessed as inhibition of biofilm formation at 0.5 to 8 microg/ml measured for 24 hrs by crystal violet staining based; type: functional; details: dose 0.5-8 µg/ml, at 0.5 to 8 µg/mL
[47] = tested on: Candida albicans; assay: Induction of morphological changes in Candida albicans assessed as appearance of atrophied surface at 2 times MIC measured after 6 hrs by SEM analysis; type: functional, organism-based

O=C1c2cccc3c(N/N=C/c4ccc([N+](=O)[O-])o4)ccc(c23)C(=O)N1CCO
Activity [1]: Active
fold change (FC) [2]: 2.5
Activity [3]: Active
Ratio [4]: 13
K [5]: 2.4 10^4L/mol
Activity [6]: Active
MIC [7]: 2 µM (≈ 0.789 µg/mL)
Activity [8]: Active
Activity [9]: Active
Activity [10]: inactive
Activity [11]: Active
MIC [12]: 4 µM (≈ 1.58 µg/mL)
Activity [13]: Active
Activity [14]: 70%
KSV [15]: 8.82 10^4L/mol
MIC [16]: 2 µM (≈ 0.789 µg/mL)
Activity [17]: Active
Activity [18]: Non-Toxic
MIC [19]: 1 µM (≈ 0.394 µg/mL)
Activity [20]: Active
Activity [21]: Dose-Dependent Effect
MIC [22]: 4 µM (≈ 1.58 µg/mL)
KSV [23]: 12.6 10^4L/mol
Activity [24]: <55%
Activity [25]: Dose-Dependent Effect
Activity [26]: Active
Activity [27]: Active
Activity [28]: Dose-Dependent Effect
Activity [29]: inactive
Activity [30]: inactive
Activity [31]: Active
KSV [32]: 9.34 10^4L/mol
Activity [33]: 40%
Activity [34]: 50%
Activity [35]: inactive
Activity [36]: Dose-Dependent Effect
Activity [37]: Active
Activity [38]: Non-Toxic
Activity [39]: Dose-Dependent Effect
hemolysis at 6 h, 128 times MIC [40]: < 5%
Activity [41]: inactive
Activity [42]: inactive
Activity [43]: inactive
Activity [44]: Non-Toxic
Activity [45]: Active
inhibition (INH) [46]: 22%
Activity [47]: Active
